Experimental data as given in patent US4988691A (priority 1989, dated 1991).
Structures can show the parent of a compound that is named as a salt. Where two headings read alike, the source gives them in different places.

Columns and labels:
[1] = biological target: 5-HT1 receptors; experiment: affinity for 5-HT1 receptors (3H serotonin binding), rat cortex membranes; details: 3H-serotonin 5 nM; rat frontal cortex membranes
[2] = biological target: T1, contracturing effect of acetylcholine (Cavia porcellus, UniProt H0W1Z3); experiment: anticholinergic activity in vitro (contracturing effect of acetylcholine on isolated guinea pig small intestine); design: species or system Guinea pigs
T1 construct: Segments measuring 5-6 cm were drawn form the end portion of the small intestine; from tissue; host or cells: guinea pig terminal small intestine (ileum)

[3] = biological target: T2, contracturing effect of histamine (Cavia porcellus, UniProt P31389); experiment: antihistaminic activity in vitro (contracturing effect of histamine on isolated guinea pig small intestine); design: species or system Guinea pigs; details: vs histamine; guinea pig small intestine; 37° C.; test compounds 10^-5 M; read-out: Antihistaminic activity (pA2) (converted)
T2 construct: Segments measuring 5-6 cm were drawn form the end portion of the small intestine; from tissue; host or cells: guinea pig terminal small intestine (ileum)

[4] = tested on: rat sciatic nerve; experiment: local anaesthetic activity on sciatic nerve preparation in vitro; details: read-out: ED50 (C.L. 95%)
[5] = tested on: guinea pig back; experiment: local anaesthetic activity in the test of the guinea pig back in vivo (intracutaneous infiltration); details: guinea pig back, cutaneous anaesthesia, 0.25 ml
Experimental: (b) Evaluation of the local anaesthetic activity in the test of the guinea pig back in vivo in comparison with lidocaine.
The local anaesthetic activity was evaluated by the method of intracutaneous infiltration in the guinea pig back as described by Bulbring E. and Wajda I. [(J. Pharmacol. Exp. Ther. 85, 78, (1945)].
Female guinea pigs weighin 400-500 g were treated intracutaneously in 4 points of their back.
At 5 minutes intervals, it was determined the reactivity of the animal to pain in each area by considering the number of responses to 6 pain stimulations.
Compounds of formula I, compound R and lidocaine, dissolved at different concentration in physiological solution adjusting the pH at 7 by addition of NaHCO3 were injected under the skin at the constant volume of 0.25 ml.
The distribution of the treatments in the 4 areas of the back was carried out according to the scheme of the Latin square. Experiments were carried out in blind.
As an example, the ED50 values for compound No. 8, compound R and lidocaine determined at 5, 15 and 30 minutes after the administration are reported in table 4.

[6] = biological target: T3, 5-HT3 receptors (Oryctolagus cuniculus, UniProt A0A5F9C9J3); experiment: anti-5-HT3 activity in vitro on the isolated vagus nerve of rabbit
T3 construct: from tissue; host or cells: isolated rabbit vagus nerve
T3 sequence (A0A5F9C9J3 1-494): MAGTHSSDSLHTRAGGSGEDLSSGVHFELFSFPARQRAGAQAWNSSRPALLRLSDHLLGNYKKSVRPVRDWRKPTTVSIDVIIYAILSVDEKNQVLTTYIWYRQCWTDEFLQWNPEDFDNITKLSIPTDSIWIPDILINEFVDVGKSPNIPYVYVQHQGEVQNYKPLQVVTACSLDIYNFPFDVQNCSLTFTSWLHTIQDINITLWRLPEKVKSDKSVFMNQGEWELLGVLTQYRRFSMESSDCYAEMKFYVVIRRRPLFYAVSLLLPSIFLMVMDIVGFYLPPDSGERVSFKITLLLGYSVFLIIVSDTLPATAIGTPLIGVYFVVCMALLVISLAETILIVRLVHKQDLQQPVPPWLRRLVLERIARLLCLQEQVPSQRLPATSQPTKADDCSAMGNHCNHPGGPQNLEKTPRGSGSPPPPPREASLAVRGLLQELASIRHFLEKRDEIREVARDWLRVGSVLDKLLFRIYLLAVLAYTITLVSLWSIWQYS
Experimental: (b) Evaluation of the anti-5-HT3 activity in vitro on the vagus nerve of rabbit. Male albino New Zeland rabbits weighing about 3 kg were sacrified by an air injection in the edge auriculaers vein. The two vagus nerves, drawn as soon as possible, were placed in a bath of Locke solution having the following composition: 154 mM NaCl; 5.5 mM KCl; 2.2 mM CaCl2; 5 mM glucose; 8 mM TRIS, the pH being adjusted at 7.6 by addition of HCl. Nerves were stripped of their epineurium and transferred into a device described by Kosterlitz H. W. et al., [J. Physiol., 183, IP-3P, (1966)] consisting of four compartments separated by means of 3 elastic membranes having a little hole through which the nerve passes. The glucose concentration perfusing a portion of the nerve was 315 mM. The overmaximal electric stimulation by a single shock at 10 seconds intervals elicited a potential visualized on a storage oscilloscope. In the potential the complexes due to the excitation of fibers A, B and C were distinguished. A serotonin solution applied to the nerve causes the dose-dependent fall of the potential for fibers C only. The non variation of the A-B complex when applying serotonin and the test compounds of formula I indicates on one hand the specific action of the substances for receptors relating to fibers C only (5-HT3 receptors) and on the other hand the absence of local-anaesthetic activity. Tests were performed at room temperature (24°-25° C.). The optimum maximum reduction of the potential of fibers C by serotonin resulted to be 44%. This reduction was adopted as maximum effect (100%). For each nerve a dose-response curve was constructed with cumulative doses of serotonin. After having washed serotonin and recovered the initial potential, the nerve was balanced with a fixed concentration of the compound of formula I for 60 minutes and successively the dose-response curve to serotonin was repeated, the compound of formula I being always present in the same concentration. After having applied a serotonin concentration sufficient to produce the highest effect, the preparation was washed and thereafter it was balanced again for 60 minutes with a solution of the same compound of formula I having a higher concentration. The procedure was then repeated. For each dose of the compound of formula I the test was repeated more than 5 times. The negative […] logarithm of the molar concentration of the compound of formula I which gives a 50% reduction of the effect of the agonist substance (pA2) was calculated. In table 7, the pA2 values of some compounds of formula I are reported.

[7] = biological target: 5-HT2 receptors (Rattus norvegicus, UniProt P14842); experiment: affinity for 5-HT2 receptors (3H-spiroperidol binding), rat cortex membranes; details: 3H-spiroperidol […]; rat frontal cortex membranes
[8] = tested on: receptors for benzodiazepins; experiment: displacement of 3H-flunitrazepam from benzodiazepine receptors, rat cerebral cortex membranes; type: binding; details: 3H-flunitrazepam 1nM
[9] = tested on: Ca^++ receptors; experiment: displacement of 3H-nitrendipine from Ca++ receptors, rat brain membranes; type: binding; details: 3H-nitrendipine 1nM
[10] = vs acetylcholine, guinea pig small intestine, 37° C., test compounds 10^-5 M, read-out: Antichlonergic activity (pA2) (converted)

T2 sequence (P31389 whole entry): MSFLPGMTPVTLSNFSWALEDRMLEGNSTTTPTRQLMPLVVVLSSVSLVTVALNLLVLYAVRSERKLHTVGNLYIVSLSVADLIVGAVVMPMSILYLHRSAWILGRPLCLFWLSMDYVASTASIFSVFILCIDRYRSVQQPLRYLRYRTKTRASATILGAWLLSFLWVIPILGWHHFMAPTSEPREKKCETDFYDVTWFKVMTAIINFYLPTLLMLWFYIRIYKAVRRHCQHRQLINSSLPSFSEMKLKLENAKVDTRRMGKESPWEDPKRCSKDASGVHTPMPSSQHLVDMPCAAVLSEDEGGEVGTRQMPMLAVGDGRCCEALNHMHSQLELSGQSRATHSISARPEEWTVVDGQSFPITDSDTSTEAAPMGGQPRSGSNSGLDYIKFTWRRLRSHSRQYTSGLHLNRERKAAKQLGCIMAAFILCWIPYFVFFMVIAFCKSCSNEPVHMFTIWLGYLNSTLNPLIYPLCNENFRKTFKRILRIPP
T1 sequence (H0W1Z3 1-590): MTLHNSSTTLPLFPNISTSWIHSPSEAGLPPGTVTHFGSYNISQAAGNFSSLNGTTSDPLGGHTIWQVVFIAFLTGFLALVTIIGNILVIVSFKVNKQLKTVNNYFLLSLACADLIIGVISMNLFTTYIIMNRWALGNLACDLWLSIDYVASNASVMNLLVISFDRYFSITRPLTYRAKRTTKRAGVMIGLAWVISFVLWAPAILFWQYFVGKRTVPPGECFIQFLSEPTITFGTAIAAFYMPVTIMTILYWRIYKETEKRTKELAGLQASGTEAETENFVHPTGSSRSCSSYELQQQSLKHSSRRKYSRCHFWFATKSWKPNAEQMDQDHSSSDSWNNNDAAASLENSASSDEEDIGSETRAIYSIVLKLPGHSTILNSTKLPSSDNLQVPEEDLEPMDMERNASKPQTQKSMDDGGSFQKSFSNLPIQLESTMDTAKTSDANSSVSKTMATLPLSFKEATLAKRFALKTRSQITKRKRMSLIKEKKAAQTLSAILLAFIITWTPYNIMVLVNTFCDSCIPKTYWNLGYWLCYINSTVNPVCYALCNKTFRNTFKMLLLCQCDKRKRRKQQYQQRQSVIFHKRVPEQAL
5-HT2 receptors, sequence (P14842 whole entry): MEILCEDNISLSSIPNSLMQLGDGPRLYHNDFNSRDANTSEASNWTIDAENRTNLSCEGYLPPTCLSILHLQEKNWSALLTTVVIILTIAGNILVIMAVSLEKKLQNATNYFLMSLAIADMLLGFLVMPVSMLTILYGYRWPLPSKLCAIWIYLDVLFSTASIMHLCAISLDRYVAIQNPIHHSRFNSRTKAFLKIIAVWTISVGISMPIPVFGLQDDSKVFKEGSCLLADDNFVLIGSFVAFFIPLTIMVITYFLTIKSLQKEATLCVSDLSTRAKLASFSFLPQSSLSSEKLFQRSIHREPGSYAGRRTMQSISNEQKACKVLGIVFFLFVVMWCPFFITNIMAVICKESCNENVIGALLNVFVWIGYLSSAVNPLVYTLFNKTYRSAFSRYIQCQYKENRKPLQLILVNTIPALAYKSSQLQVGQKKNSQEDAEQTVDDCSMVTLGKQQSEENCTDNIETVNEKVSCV

For `O=C(c1ccc(F)cc1)C1CCN(CCn2c(=O)[nH]c3ccccc3c2=O)CC1` [ketanserine, reference compound], the IC50 [1] was 10 µM.

With `CN1[C@@H]2CC[C@H]1C[C@@H](OC(=O)c1cc(OCc3ccccc3)no1)C2` [Compound 3, 3-benzyloxyisoxazole-5-carboxylic acid 3-(endo-8-methyl-8-azabicyclo[3,2,1]octyl) ester hydrochloride] the Kb [2] was 2 µM and the Kb [3] was 2.51 µM.

In the case of `Cc1cc(C(=O)N[C@@H]2C[C@H]3CC[C@@H](C2)N3C)no1` [Compound 15, N-[3-(exo-8-methyl-8-azabicyclo[3,2,1]octyl)]-5-methylisoxazole-3-carboxamide], the Kb [3] is reported as 50.1 µM.

For `CCN(CC)CC(=O)Nc1c(C)cccc1C` [lidocaine], the IC50 ([4]; rat, sciatic nerve, 8 min) was 600 µM, the “ED50 (C.L. 95%), 5 min.” value ([5]; 5 min. after administration) was 5.8 (4.9-6.8) mM and the “ED50 (C.L. 95%), 15 min.” value ([5]; 15 min. after administration) was 7.6 (6.8-8.4) mM. The “ED50 (C.L. 95%), 30 min.” value ([5]; 30 min. after administration) was 15.2 (13.8-16.6) mM.

In the case of `NCCc1c[nH]c2ccc(O)cc12` [serotonin, reference compound], the “optimum maximum reduction of the potential of fibers C” value ([6]; serotonin applied to rabbit vagus nerve, 24°-25° C.) is reported as 44%.

In the case of `COc1cc(C(=O)O[C@H]2C[C@H]3CC[C@@H](C2)N3C)on1` [Compound 6, 3-methoxyisoxazole-5-carboxylic acid 3-(endo-8-methyl-8-azabicyclo[3,2,1]octyl) ester hydrochloride], the Kb [2] is reported as 12.6 µM, the Kb [3] is reported as 6.31 µM and the IC50 ([4]; rat, sciatic nerve, 8 min) is reported as > 15000 µM. For the same compound, the Kb [6] was 0.00126 µM.

For `Cc1cc(C(=O)OC2CCCN(C)C2)no1` (stereo not shown) [Compound 10, 5-methylisoxazole-3-carboxylic acid 3-(1-methylpiperidinyl) ester hydrochloride], the Kb [2, 10] was 50.1 µM, the Kb [3] was 200 µM and the “Affinity (IC50) to 5-HT2 receptors” value [7] was “inactive”.

In the case of `Cc1cc(C(=O)N[C@H]2C[C@H]3CC[C@@H](C2)N3C)no1` [Compound 16, N-[3-(endo-8-methyl-8-azabicyclo[3,2,1]octyl)]-5-methylisoxazole-3-carboxamide], the Kb [2] is reported as 126 µM and the Kb [3] is reported as 7.94 µM.

`Cc1cc(C(=O)NC2CN3CCC2CC3)no1` (stereo not shown) [Compound 17, N-[3-(1-azabicyclo[2,2,2]octyl)]-5-methylisoxazole-3-carboxamide] showed a Kb [3] of 50.1 µM.

With `CCN1CCCC(NC(=O)c2cc(C)on2)C1` (stereo not shown) [Compound 14, N-(1-ethyl-3-piperidinyl)-5-methylisoxazole-3-carboxamide] the Kb [3] was 316 µM.

With `Cc1cc(C(=O)OC2CCN(C)CC2)no1` [Compound 9, 5-methylisoxazole-3-carboxylic acid 4-(1-methylpiperidinyl) ester hydrochloride] the Kb [2, 10] was 25.1 µM, the Kb [3] was 10 µM and the IC50 ([4]; rat sciatic nerve in vitro, 8 minutes contact) was > 15000 µM.

With `Cc1cc(C(=O)O[C@H]2C[C@H]3CC[C@@H](C2)N3C)on1` [Compound 5, 3-methylisoxazole-5-carboxylic acid 3-(endo-8-methyl-8-azabicyclo[3,2,1]octyl) ester hydrochloride] the Kb [2] was 31.6 µM, the Kb [3] was 12.6 µM and the “Displacement activity at benzodiazepine receptors” value [8] was “inactive”. The “Displacement activity at receptors of Ca++” value [9] was “inactive” and the Kb [6] was 0.00158 µM.

`Cc1cc(C(=O)O[C@H]2C[C@H]3CC[C@@H](C2)[N+]3(C)C)no1` [Compound 18, endo-8,8-dimethyl-3-(5-methylisoxazole-3-carbonyloxy)-8-azoniabicyclo[3,2,1]octane bromide] was tested, and the Kb [2] was 6.31 µM, the Kb [3] was 15.8 µM and the IC50 ([4]; rat, sciatic nerve, 8 min) was > 15000 µM. The “Affinity (IC50) to 5-HT1 receptors” value [1] was “inactive” and the “Affinity (IC50) to 5-HT2 receptors” value [7] was “inactive”.

For `CN1C(=O)CN=C(c2ccccc2)c2cc(Cl)ccc21` [diazepam, reference compound], the “Displacement activity at benzodiazepine receptors” value [8] was 4.
